Our source for the ΔTm values is PMC11851430, “Workflow for E3 Ligase Ligand Validation for PROTAC Development” (ACS Chemical Biology, 2025).

As a reminder, the ΔTm is the change in melting temperature against a reference sample.

The structures appear in SMILES notation.

Holding throughout (test): DSF assay
Common to all, as to format: binding
What all share (conditions): 20 µM compound
(In DSF a fluorescence change marks the thermal transition of the protein.)

One experiment concerns the target T1, STK6A (Homo sapiens, UniProt O14965).
T1 construct: purchased in-house DSF panel (SGC-style construct names; the trailing A/B is a construct suffix)
T1 sequence (O14965 122-403): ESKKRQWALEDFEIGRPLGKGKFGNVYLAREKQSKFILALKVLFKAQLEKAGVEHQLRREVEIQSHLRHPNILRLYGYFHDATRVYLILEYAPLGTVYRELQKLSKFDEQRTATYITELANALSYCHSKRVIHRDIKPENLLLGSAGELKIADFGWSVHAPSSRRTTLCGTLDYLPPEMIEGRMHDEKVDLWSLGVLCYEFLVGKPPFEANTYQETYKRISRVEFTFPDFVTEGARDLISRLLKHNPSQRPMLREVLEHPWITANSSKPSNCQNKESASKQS

In a further experiment the target is T2, GAKA (Homo sapiens, UniProt O14976).
T2 construct: purchased in-house DSF panel (SGC-style construct names; the trailing A/B is a construct suffix)
T2 sequence (O14976 14-351): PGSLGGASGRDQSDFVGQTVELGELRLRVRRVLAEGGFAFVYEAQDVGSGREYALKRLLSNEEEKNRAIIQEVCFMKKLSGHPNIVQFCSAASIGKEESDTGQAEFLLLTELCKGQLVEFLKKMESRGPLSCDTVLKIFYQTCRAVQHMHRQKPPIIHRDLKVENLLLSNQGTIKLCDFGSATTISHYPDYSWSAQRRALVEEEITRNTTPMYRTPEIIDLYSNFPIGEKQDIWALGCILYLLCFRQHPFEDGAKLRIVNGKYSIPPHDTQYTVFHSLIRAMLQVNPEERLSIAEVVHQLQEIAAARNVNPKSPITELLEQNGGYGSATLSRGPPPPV

Another experiment concerns the target T3, MAPK15A (Homo sapiens, UniProt Q8TD08).
T3 construct: purchased in-house DSF panel (SGC-style construct names; the trailing A/B is a construct suffix)
T3 sequence (Q8TD08 1-345): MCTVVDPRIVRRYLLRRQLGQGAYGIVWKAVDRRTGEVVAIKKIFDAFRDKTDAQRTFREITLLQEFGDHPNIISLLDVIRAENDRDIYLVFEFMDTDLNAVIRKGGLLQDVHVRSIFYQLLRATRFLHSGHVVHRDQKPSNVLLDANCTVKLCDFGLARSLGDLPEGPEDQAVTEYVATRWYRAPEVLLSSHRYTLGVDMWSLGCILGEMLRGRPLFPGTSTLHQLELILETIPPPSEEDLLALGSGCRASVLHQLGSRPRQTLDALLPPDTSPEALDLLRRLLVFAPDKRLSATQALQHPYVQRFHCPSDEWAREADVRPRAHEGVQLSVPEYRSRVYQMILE

The target of the next experiment is T4, STK17B (Homo sapiens, UniProt O94768).
T4 construct: purchased in-house DSF panel (SGC-style construct names; the trailing A/B is a construct suffix)
T4 sequence (O94768 25-329): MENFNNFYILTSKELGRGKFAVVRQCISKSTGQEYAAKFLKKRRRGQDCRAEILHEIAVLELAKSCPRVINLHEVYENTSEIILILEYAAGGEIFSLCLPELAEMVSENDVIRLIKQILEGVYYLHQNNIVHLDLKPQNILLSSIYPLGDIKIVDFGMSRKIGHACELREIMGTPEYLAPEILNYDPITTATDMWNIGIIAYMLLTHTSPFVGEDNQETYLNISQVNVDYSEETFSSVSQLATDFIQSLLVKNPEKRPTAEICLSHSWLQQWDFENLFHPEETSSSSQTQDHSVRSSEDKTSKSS

The next experiment concerns the target T5, OSR1A (Homo sapiens, UniProt O95747).
T5 construct: purchased in-house DSF panel (SGC-style construct names; the trailing A/B is a construct suffix)

The target in a further experiment is T6, CAMK2BA (Homo sapiens, UniProt Q13554).
T6 construct: purchased in-house DSF panel (SGC-style construct names; the trailing A/B is a construct suffix)

Another experiment addresses T7, PAK4A (Homo sapiens, UniProt O96013).
T7 construct: purchased in-house DSF panel (SGC-style construct names; the trailing A/B is a construct suffix)

The target in another experiment is T8, TLK1A (Homo sapiens, UniProt Q9UKI8).
T8 construct: purchased in-house DSF panel (SGC-style construct names; the trailing A/B is a construct suffix)
T8 sequence (Q9UKI8 456-734): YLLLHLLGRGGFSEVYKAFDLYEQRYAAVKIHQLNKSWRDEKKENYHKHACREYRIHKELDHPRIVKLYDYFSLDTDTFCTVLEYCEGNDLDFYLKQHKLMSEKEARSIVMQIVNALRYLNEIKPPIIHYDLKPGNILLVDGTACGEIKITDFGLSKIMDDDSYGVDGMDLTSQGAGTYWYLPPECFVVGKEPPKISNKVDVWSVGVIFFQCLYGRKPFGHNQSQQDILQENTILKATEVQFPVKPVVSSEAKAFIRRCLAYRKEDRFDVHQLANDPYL

A further experiment has as its target T9, FESA (Homo sapiens, UniProt P07332).
T9 construct: purchased in-house DSF panel (SGC-style construct names; the trailing A/B is a construct suffix)

Another experiment has as its target T10, CAMKK2B (Homo sapiens, UniProt Q96RR4).
T10 construct: purchased in-house DSF panel (SGC-style construct names; the trailing A/B is a construct suffix)

A further experiment deals with T11, DAPK1A (Homo sapiens, UniProt P53355).
T11 construct: purchased in-house DSF panel (SGC-style construct names; the trailing A/B is a construct suffix)

The target in another experiment is T12, STK4A (Homo sapiens, UniProt Q13043).
T12 construct: purchased in-house DSF panel (SGC-style construct names; the trailing A/B is a construct suffix)
T12 sequence (Q13043 1-311): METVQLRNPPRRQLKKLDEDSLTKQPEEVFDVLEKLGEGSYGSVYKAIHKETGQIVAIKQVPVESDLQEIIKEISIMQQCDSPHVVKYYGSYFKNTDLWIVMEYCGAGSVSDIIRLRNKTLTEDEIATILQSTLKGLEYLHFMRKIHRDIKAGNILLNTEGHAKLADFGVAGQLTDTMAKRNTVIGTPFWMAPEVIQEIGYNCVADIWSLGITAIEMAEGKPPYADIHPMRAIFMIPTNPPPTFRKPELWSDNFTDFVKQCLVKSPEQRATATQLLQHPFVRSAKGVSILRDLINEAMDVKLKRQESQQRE

For a further experiment, the target named is T13, FLT1 (Homo sapiens, UniProt P17948).
T13 construct: purchased in-house DSF panel (SGC-style construct names; the trailing A/B is a construct suffix)
T13 sequence (P17948 801-1158): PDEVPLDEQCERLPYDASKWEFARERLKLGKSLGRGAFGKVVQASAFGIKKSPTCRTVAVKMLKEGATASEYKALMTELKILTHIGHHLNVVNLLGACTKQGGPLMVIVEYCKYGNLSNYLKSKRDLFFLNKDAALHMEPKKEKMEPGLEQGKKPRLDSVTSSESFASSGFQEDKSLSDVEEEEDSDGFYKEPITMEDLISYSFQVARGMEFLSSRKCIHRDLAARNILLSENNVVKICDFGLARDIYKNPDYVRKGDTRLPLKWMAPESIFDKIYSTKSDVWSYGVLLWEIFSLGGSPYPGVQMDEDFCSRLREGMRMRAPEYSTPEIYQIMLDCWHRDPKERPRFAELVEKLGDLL

A further experiment deals with T14, AAK1A (Homo sapiens, UniProt Q2M2I8).
T14 construct: purchased in-house DSF panel (SGC-style construct names; the trailing A/B is a construct suffix)

In the next experiment the target is T15, EPHA7A (Homo sapiens, UniProt Q15375).
T15 construct: purchased in-house DSF panel (SGC-style construct names; the trailing A/B is a construct suffix)
T15 sequence (Q15375 590-899): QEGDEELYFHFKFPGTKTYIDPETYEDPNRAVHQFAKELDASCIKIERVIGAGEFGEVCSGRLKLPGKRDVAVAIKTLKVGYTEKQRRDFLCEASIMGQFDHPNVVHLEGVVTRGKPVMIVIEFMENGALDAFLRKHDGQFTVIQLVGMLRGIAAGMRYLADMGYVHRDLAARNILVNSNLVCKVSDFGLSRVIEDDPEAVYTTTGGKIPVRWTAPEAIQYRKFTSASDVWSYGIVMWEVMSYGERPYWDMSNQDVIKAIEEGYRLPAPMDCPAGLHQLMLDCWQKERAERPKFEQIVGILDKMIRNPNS

T6 sequence (Q13554 11-303): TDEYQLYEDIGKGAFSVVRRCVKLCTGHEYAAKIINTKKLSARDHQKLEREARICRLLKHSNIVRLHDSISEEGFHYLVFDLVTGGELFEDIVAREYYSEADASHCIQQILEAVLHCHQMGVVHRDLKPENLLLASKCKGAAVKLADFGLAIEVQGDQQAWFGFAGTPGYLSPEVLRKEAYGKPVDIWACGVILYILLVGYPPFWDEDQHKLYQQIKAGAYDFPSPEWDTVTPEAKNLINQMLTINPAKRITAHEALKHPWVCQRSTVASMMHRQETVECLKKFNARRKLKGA
T10 sequence (Q96RR4 161-449): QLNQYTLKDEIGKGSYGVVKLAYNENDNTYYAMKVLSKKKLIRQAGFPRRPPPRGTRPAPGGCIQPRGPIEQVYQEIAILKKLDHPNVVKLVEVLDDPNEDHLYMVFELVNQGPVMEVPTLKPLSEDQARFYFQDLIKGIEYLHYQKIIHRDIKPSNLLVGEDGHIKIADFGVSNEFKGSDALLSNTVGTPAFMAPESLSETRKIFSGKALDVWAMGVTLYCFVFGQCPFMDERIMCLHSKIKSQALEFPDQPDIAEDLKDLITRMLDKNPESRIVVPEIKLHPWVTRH
T5 sequence (O95747 17-291): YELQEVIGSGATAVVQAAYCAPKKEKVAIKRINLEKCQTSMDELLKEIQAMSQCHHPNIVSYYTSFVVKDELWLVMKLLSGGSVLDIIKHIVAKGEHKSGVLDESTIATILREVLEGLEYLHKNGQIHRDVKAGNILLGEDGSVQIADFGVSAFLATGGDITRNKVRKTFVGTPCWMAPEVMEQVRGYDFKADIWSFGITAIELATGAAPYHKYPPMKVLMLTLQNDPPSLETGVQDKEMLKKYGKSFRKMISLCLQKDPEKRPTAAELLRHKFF
T7 sequence (O96013 291-591): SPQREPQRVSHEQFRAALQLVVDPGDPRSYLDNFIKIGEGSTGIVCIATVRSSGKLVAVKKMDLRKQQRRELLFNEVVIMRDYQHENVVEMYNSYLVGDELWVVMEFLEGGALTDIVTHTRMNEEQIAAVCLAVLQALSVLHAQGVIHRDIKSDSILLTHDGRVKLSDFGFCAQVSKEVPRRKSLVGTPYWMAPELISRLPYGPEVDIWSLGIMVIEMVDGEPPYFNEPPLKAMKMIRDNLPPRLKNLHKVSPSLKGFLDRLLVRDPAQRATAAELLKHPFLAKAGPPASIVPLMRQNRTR
T11 sequence (P53355 1-285): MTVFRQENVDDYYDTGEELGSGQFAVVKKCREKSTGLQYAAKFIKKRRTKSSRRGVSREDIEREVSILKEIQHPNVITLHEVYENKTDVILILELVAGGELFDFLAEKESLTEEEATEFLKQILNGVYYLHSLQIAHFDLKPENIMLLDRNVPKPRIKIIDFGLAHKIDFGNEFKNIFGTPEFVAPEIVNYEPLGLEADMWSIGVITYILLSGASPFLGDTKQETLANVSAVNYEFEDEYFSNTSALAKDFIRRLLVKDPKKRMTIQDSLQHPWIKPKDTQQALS
T9 sequence (P07332 whole entry): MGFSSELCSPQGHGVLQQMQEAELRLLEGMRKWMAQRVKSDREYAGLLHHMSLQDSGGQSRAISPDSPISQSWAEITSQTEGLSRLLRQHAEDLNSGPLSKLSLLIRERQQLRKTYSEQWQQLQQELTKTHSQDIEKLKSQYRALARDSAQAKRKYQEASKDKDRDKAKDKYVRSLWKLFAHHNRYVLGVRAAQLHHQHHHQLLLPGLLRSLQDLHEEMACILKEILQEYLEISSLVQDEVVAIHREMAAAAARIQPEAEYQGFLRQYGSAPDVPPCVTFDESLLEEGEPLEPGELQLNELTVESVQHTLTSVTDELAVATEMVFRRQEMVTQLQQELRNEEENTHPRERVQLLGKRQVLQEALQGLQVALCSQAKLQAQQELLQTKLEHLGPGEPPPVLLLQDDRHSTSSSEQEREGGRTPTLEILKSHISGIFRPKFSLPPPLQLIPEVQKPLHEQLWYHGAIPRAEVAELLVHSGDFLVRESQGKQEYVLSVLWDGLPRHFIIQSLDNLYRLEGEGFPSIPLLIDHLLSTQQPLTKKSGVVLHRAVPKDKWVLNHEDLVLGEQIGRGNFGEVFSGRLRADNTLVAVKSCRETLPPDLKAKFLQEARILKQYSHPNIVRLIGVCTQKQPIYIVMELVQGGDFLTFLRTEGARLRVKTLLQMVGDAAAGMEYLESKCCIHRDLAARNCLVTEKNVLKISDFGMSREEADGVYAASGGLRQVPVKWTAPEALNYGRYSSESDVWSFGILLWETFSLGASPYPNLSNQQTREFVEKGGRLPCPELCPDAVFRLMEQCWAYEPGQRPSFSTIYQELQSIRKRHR
T14 sequence (Q2M2I8 27-365): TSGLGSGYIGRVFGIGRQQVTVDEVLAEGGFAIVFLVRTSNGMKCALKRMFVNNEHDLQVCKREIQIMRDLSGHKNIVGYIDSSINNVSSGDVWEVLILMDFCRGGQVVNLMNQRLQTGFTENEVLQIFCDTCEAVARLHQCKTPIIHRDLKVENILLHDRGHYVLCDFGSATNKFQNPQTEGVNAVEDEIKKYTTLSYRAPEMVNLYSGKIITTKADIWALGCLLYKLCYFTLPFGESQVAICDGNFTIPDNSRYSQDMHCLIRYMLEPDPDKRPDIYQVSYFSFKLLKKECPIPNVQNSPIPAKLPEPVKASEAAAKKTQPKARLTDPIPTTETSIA

Consider `CCOC(=O)c1cc(Nc2cc(C3CC3)[nH]n2)nc(Nc2ccc(CC#N)cc2)n1` [compound 5], for which the ΔTm at 20 µM on STK6A was 14.4 °C; at GAKA it was 4.56 °C; at MAPK15A it was 14.8 °C; at STK17B it was 2.58 °C; on OSR1A, 3.5 °C; on CAMK2BA, 1.15 °C. The ΔTm at 20 µM on PAK4A came out at 7.87 °C; at TLK1A it was 5.4 °C; on FESA it was 3.17 °C; at CAMKK2B, 9.77 °C; on DAPK1A, 3.22 °C; at STK4A, 8.99 °C. Moreover, the figures for the ΔTm at 20 µM on FLT1, on AAK1A and at EPHA7A were 9.16 °C, 10.1 °C and 3.39 °C, respectively.

As to `CC(C)(C)OC(=O)NCCOCCOCCOCCOCCC(=O)N1CCN(c2cc(Nc3cc(C4CC4)[nH]n3)nc(Nc3ccc(CC#N)cc3)n2)CC1` [4-L], the ΔTm at 20 µM at STK6A is 18.7 °C; at GAKA, 5.92 °C; on MAPK15A, 16.4 °C; at STK17B, 1.6 °C; at OSR1A, 3.71 °C; at CAMK2BA, -0.09 °C. For the same molecule, the ΔTm at 20 µM on PAK4A came to 11 °C; on TLK1A it was 3.45 °C; at FESA, 4.19 °C; on CAMKK2B, 15.4 °C; on DAPK1A, 2.7 °C; at STK4A it was 9.02 °C. In addition, the ΔTm at 20 µM was 11.7 °C on FLT1, 13.2 °C at AAK1A and 1.51 °C at EPHA7A.

As for `CC(C)(C)OC(=O)NCCCOCCOCCOCCCNC(=O)c1cc(Nc2cc(C3CC3)[nH]n2)nc(Nc2ccc(CC#N)cc2)n1` [5-L], the ΔTm at 20 µM at STK6A came to 12.2 °C; at GAKA it was 3.75 °C; on MAPK15A, 17 °C; at STK17B, 1.81 °C; at OSR1A, 3.94 °C; at CAMK2BA it was 0.97 °C. Besides, the ΔTm at 20 µM at PAK4A was 9.26 °C; on TLK1A it was 4.52 °C; at FESA, 2.67 °C; at CAMKK2B, 10.7 °C; at DAPK1A, 1.49 °C; at STK4A, 7.44 °C. The values for the ΔTm at 20 µM on FLT1, on AAK1A and at EPHA7A were 8.06 °C, 12.1 °C and 2.65 °C, respectively.
